Experimental data reported in patent US8952024B2, “Herbicidal pyrimidone derivatives” (E I du Pont de Nemours and Company, priority 2009, dated 2015).

Legend:
Assay type in all cases: in vivo
[1] = system: wild oat (Avena fatua); assay: Test B pre-/postemergence plant response; conditions: for Plant response rating, Oat, Wild: Postemergence; for Oat, Wild plant response rating (0 to 100 scale): 62 g ai/ha, postemergence, 0 is no effect, 100 is complete control, 13 to 15 days
Outline: (§1)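 Greenhouse herbicide screen. Pre- and postemergence (1- to 4-leaf) spray of compound in solvent/surfactant mixture; loam–sand soil for pre, peat/vermiculite medium for post. Visual control rating 0–100 at 13 to 15 days after treatment.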

[2] = system: pigweed (Amaranthus retroflexus); assay: Test B pre-/postemergence plant response; conditions: for Plant response rating, Pigweed: Postemergence; for Pigweed plant response rating (0 to 100 scale): 62 g ai/ha, postemergence, 0 is no effect, 100 is complete control, 13 to 15 days
Outline: as §1

[3] = system: chickweed (Stellaria media); assay: Test B postemergence plant response; conditions: for Plant response rating, Chickweed: Postemergence; for Chickweed plant response rating (0 to 100 scale): 62 g ai/ha, postemergence, 0 is no effect, 100 is complete control, 13 to 15 days
Outline: (§2)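 Plants grown in peat/vermiculite medium were sprayed postemergence at 2–18 cm height (1- to 4-leaf stage). After 13–15 days in the greenhouse, response was rated visually against untreated controls on a 0–100 scale (0 no effect, 100 complete control).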

[4] = system: winter barley (Hordeum vulgare); assay: Test B postemergence plant response; conditions: for Plant response rating, Barley: Postemergence; for Barley plant response rating (0 to 100 scale): 62 g ai/ha, postemergence, 0 is no effect, 100 is complete control, 13 to 15 days
Outline: as §2

[5] = system: windgrass (Apera spica-venti); assay: Test B postemergence plant response; conditions: for Plant response rating, Windgrass: Postemergence; for Windgrass plant response rating (0 to 100 scale): 62 g ai/ha, postemergence, 0 is no effect, 100 is complete control, 13 to 15 days
Outline: as §2

[6] = system: canarygrass (Phalaris minor); assay: Test B postemergence plant response; conditions: for Plant response rating, Canarygrass: Postemergence; for Canarygrass plant response rating (0 to 100 scale): 62 g ai/ha, postemergence, 0 is no effect, 100 is complete control, 13 to 15 days
Outline: as §2

[7] = system: rice (Oryza sativa); assay: Test B flooded paddy test; conditions: for Plant response rating, Flood, Rice: 250 g ai/ha, flooded paddy test, visual rating on 0 to 100 scale (0 no effect, 100 complete control) after 13 to 15 days; for Plant response rating, Rice: Flood (flooded paddy test), 13 to 15 days
Outline: (§3)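 2-leaf seedlings; pots flooded 3 cm over soil at treatment; cpd dosed into floodwater, depth kept constant. Greenhouse 13–15 d. Visual rating vs untreated controls, 0 = no effect, 100 = complete control.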

[8] = system: ducksalad (Heteranthera limosa); assay: Test B flooded paddy test; conditions: for Plant response rating, Flood, Ducksalad: 250 g ai/ha, flooded paddy test, visual rating on 0 to 100 scale (0 no effect, 100 complete control) after 13 to 15 days; for Plant response rating, Ducksalad: Flood (flooded paddy test), 13 to 15 days
Outline: as §3

[9] = system: umbrella sedge (Cyperus difformis); assay: Test B flooded paddy test; conditions: for Plant response rating, Flood, Sedge, Umbrella: 250 g ai/ha, flooded paddy test, visual rating on 0 to 100 scale (0 no effect, 100 complete control) after 13 to 15 days; for Plant response rating, Sedge, Umbrella: Flood (flooded paddy test), 13 to 15 days
Outline: as §3

[10] = system: barnyardgrass (Echinochloa crus-galli); assay: Test B flooded paddy test; conditions: for Plant response rating, Flood, Barnyardgrass: 250 g ai/ha, flooded paddy test, visual rating on 0 to 100 scale (0 no effect, 100 complete control) after 13 to 15 days; for Plant response rating, Barnyardgrass: Flood (flooded paddy test), 13 to 15 days
Outline: as §3

[11] = 31 g ai/ha, 0 to 100 scale (0 no effect, 100 complete control)
[12] = 125 g ai/ha, scale 0 to 100 (0 no effect, 100 complete control)
[13] = 62 g ai/ha, scale of 0 to 100 where 0 is no effect and 100 is complete control
[14] = 250 g ai/ha, scale 0 to 100 (0 no effect, 100 complete control)
[15] = 125 g ai/ha, scale 0 to 100, 0 is no effect, 100 is complete control
[16] = Flood, 31 g ai/ha, scale 0 to 100 (0 no effect, 100 complete control)

SMILES	Oat, Wild plant response rating (0 to 100 scale) [1]	Plant response rating, Oat, Wild [1, 11]	Plant response rating, Oat, Wild [1, 12]	Pigweed plant response rating (0 to 100 scale) [2]	Plant response rating, Pigweed [2, 11]	Plant response rating, Pigweed [2, 12]	Chickweed plant response rating (0 to 100 scale) [3]	Plant response rating, Chickweed [3, 11]	Plant response rating, Chickweed [3, 12]	Barley plant response rating (0 to 100 scale) [4]	Plant response rating, Barley [4, 11]	Plant response rating, Barley [4, 12]	Windgrass plant response rating (0 to 100 scale) [5]	Plant response rating, Windgrass [5, 11]	Plant response rating, Windgrass [5, 12]	Canarygrass plant response rating (0 to 100 scale) [6]	Plant response rating, Canarygrass [6, 11]	Plant response rating, Canarygrass [6, 12]	Plant response rating, Flood, Rice [7]	Plant response rating, Rice [7, 13]	other results
CCn1c(-c2cc(F)cc(F)c2)ncc(C(=O)C2=C(O)CCCC2=O)c1=O [Compound 122]	30	5	35	90	85	98	70	70	80	10	0	50	30	5	50	35	10	45	15	0	Plant response rating, Oat, Wild ([1]; 16 g ai/ha, 0 to 100 scale): 5; Plant response rating, Pigweed ([2]; 16 g ai/ha, 0 to 100 scale): 75; Plant response rating, Chickweed ([3]; 16 g ai/ha, 0 to 100 scale): 65; Plant response rating, Barley ([4]; 16 g ai/ha, 0 to 100 scale): 0; Plant response rating, Windgrass ([5]; 16 g ai/ha, 0 to 100 scale): 5; Plant response rating, Canarygrass ([6]; 16 g ai/ha, 0 to 100 scale): 0; Plant response rating, Flood, Ducksalad [8]: 0; Plant response rating, Ducksalad [8, 13]: 0; Plant response rating, Flood, Sedge, Umbrella [9]: 45; Plant response rating, Sedge, Umbrella [9, 13]: 20; Plant response rating, Flood, Barnyardgrass [10]: 40; Plant response rating, Barnyardgrass [10, 13]: 20
COCCCn1c(-c2cccc(F)c2)ncc(C(=O)C2=C(O)CCCC2=O)c1=O [Compound 126]	10	5	35	95	75	98	80	65	98	5	5	15	10	10	40	40	15	60	15	0	Plant response rating, Oat, Wild [1, 14]: 50; Plant response rating, Pigweed [2, 14]: 98; Plant response rating, Chickweed [3, 14]: 98; Plant response rating, Barley [4, 14]: 40; Plant response rating, Canarygrass [6, 14]: 90; Plant response rating, Rice [7, 15]: 0; Rice plant response rating [7, 16]: 0; Plant response rating, Flood, Ducksalad [8]: 85; Plant response rating, Ducksalad [8, 13]: 80; Plant response rating, Ducksalad [8, 15]: 85; Ducksalad plant response rating [8, 16]: 75; Plant response rating, Flood, Sedge, Umbrella [9]: 85; Plant response rating, Sedge, Umbrella [9, 13]: 70; Plant response rating, Sedge, Umbrella [9, 15]: 80; Sedge, Umbrella plant response rating [9, 16]: 50; Plant response rating, Flood, Barnyardgrass [10]: 75; Plant response rating, Barnyardgrass [10, 13]: 45; Plant response rating, Barnyardgrass [10, 15]: 60; Barnyardgrass plant response rating [10, 16]: 20
